How the values were obtained:
Test in all cases: relative viability (nuclei count vs DMSO), 5 days (fraction); higher = more cells survive
[1] = compound: COC1=CC=C(C=C1)CN2C=CC3=C2C=C(C=C3)C(=O)NO + COc1cc2c(Oc3ccc(NC(=O)C4(C(=O)Nc5ccc(F)cc5)CC4)cc3F)ccnc2cc1OCCCN1CCOCC1 [Foretinib] (partner 0.25 µM)
Method in brief: (§1)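 Five library-drug doses in √10 steps were combined with a fixed anchor-drug dose, or a single drug was given alone, by pin tool to lung cancer cell lines in 1536-well plates the day after seeding. Nuclei were stained and counted after 5 days. Relative viability is the nuclei count in treated wells over that in vehicle wells, taken as the median of duplicate plates.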

[2] = compound: COC1=CC=C(C=C1)CN2C=CC3=C2C=C(C=C3)C(=O)NO + CS(=O)(=O)N1CCN(Cc2cc3nc(-c4cccc5[nH]ncc45)nc(N4CCOCC4)c3s2)CC1 [Pictilisib] (partner 1 µM)
Method in brief: as §1

[3] = compound: C[C@]1(c2nc3c(C(N)=O)cccc3[nH]2)CCCN1 [Veliparib] + Cc1cc(Nc2cc(N3CCN(C)CC3)nc(Sc3ccc(NC(=O)C4CC4)cc3)n2)n[nH]1 [Tozasertib] (partner 0.1 µM)
Method in brief: as §1

[4] = compound: C[C@]1(c2nc3c(C(N)=O)cccc3[nH]2)CCCN1 [Veliparib] + O=C(c1cc(Cc2n[nH]c(=O)c3ccccc23)ccc1F)N1CCN(C(=O)C2CC2)CC1 [Olaparib] (partner 8 µM)
Method in brief: as §1

Row | Cell Line | relative viability ([1]; first compound 0.253 µM) | relative viability ([1]; first compound 0.8 µM) | relative viability ([1]; first compound 2.53 µM) | relative viability ([1]; first compound 8 µM) | relative viability ([2]; first compound 0.08 µM) | relative viability ([2]; first compound 0.253 µM) | relative viability ([2]; first compound 0.8 µM) | relative viability ([2]; first compound 2.53 µM) | relative viability ([2]; first compound 8 µM) | relative viability ([3]; first compound 0.02 µM) | relative viability ([3]; first compound 0.06325 µM) | relative viability ([3]; first compound 0.2 µM) | relative viability ([3]; first compound 0.6325 µM) | relative viability ([3]; first compound 2 µM) | relative viability ([4]; first compound 0.02 µM) | relative viability ([4]; first compound 0.2 µM) | relative viability ([4]; first compound 0.6325 µM) | relative viability ([4]; first compound 2 µM) | relative viability ([1]; first compound 0.08 µM) | relative viability ([4]; first compound 0.06325 µM)
1 | HARA | 0.868 | 0.958 | 0.826 | 0.55 | 0.467 | 0.492 | 0.403 | 0.43 | 0.33 | 0.119 | 0.117 | 0.117 | 0.0991 | 0.129 | 0.931 | 0.857 | 0.858 | 0.722 |  | 
2 | NCI-H1666 | 1.06 | 0.985 | 0.963 | 1.06 | 0.523 | 0.49 | 0.47 | 0.525 | 0.525 | 0.582 | 0.582 | 0.598 | 0.547 | 0.62 | 0.777 | 0.82 | 0.771 | 0.778 | 0.755 | 0.711
3 | CAL-12T | 1 | 1.2 | 1.06 | 1 | 0.244 |  | 0.527 | 0.377 | 0.283 | 0.317 | 0.376 | 0.327 | 0.318 | 0.369 | 0.723 | 0.696 | 0.649 | 0.712 | 0.918 | 0.727
4 | HCC-366 | 0.994 | 0.89 | 0.992 | 0.923 | 0.139 | 0.165 | 0.137 | 0.136 | 0.15 | 0.159 | 0.147 | 0.108 | 0.137 | 0.112 | 0.431 | 0.401 | 0.303 | 0.353 | 0.433 | 0.374
5 | NCI-H1975 | 1.14 | 0.934 | 0.968 | 0.926 | 0.304 | 0.297 | 0.281 | 0.299 | 0.252 | 0.932 | 0.729 | 0.775 | 0.699 | 0.723 | 0.77 | 0.788 | 0.748 | 0.776 | 0.931 | 0.745
6 | NCI-H460 | 1.06 | 0.973 | 0.974 | 1.02 | 0.0712 | 0.248 | 0.405 | 0.377 | 0.348 | 0.512 | 0.438 | 0.334 | 0.478 | 0.308 | 0.427 | 0.489 | 0.434 | 0.425 | 0.53 | 0.316
7 | NCI-H2170 | 0.961 | 0.994 | 1.03 | 1.02 | 0.271 | 0.393 | 0.347 | 0.27 | 0.279 | 0.748 | 0.744 | 0.724 | 0.709 | 0.747 | 0.573 | 0.58 | 0.586 | 0.586 | 0.978 | 0.587
8 | NCI-H1355 | 0.959 | 0.928 | 1.02 | 0.962 | 0.156 | 0.501 | 0.489 | 0.498 | 0.372 |  | 0.534 | 0.559 | 0.507 | 0.539 | 0.656 | 0.764 | 0.678 | 0.78 |  | 0.69
